ChEMBL document CHEMBL1201862, “PubChem BioAssay data set” (2004)
Activity calls are given as the source filed them. No rule for the calls is given here.

Assays:
Format in all cases: functional
[1] = target: Tyrosine-protein kinase ABL1 (Homo sapiens, UniProt P00519)
[2] = target: Cyclin-dependent kinase 8 (Homo sapiens, UniProt P49336); assay: Navigating the Kinome. Panel member name: CDK8
[3] = target: Dual specificity mitogen-activated protein kinase kinase 2 (Homo sapiens, UniProt P36507); assay: Navigating the Kinome. Panel member name: MAP2K2
Sequence of Dual specificity mitogen-activated protein kinase kinase 2 (P36507 whole entry): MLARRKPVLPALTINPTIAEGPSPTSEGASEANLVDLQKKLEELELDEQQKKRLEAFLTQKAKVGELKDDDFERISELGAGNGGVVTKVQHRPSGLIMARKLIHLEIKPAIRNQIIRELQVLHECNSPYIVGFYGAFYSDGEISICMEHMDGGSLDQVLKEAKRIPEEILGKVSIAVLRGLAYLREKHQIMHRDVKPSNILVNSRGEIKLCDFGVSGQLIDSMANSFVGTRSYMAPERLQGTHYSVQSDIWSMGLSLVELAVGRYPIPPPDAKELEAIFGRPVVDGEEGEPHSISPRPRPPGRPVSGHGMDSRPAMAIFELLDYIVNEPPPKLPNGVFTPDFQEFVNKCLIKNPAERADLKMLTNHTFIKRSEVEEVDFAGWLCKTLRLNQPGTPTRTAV

[4] = target: Mitogen-activated protein kinase kinase kinase kinase 4 (Homo sapiens, UniProt O95819)
Sequence of Mitogen-activated protein kinase kinase kinase kinase 4 (O95819 whole entry): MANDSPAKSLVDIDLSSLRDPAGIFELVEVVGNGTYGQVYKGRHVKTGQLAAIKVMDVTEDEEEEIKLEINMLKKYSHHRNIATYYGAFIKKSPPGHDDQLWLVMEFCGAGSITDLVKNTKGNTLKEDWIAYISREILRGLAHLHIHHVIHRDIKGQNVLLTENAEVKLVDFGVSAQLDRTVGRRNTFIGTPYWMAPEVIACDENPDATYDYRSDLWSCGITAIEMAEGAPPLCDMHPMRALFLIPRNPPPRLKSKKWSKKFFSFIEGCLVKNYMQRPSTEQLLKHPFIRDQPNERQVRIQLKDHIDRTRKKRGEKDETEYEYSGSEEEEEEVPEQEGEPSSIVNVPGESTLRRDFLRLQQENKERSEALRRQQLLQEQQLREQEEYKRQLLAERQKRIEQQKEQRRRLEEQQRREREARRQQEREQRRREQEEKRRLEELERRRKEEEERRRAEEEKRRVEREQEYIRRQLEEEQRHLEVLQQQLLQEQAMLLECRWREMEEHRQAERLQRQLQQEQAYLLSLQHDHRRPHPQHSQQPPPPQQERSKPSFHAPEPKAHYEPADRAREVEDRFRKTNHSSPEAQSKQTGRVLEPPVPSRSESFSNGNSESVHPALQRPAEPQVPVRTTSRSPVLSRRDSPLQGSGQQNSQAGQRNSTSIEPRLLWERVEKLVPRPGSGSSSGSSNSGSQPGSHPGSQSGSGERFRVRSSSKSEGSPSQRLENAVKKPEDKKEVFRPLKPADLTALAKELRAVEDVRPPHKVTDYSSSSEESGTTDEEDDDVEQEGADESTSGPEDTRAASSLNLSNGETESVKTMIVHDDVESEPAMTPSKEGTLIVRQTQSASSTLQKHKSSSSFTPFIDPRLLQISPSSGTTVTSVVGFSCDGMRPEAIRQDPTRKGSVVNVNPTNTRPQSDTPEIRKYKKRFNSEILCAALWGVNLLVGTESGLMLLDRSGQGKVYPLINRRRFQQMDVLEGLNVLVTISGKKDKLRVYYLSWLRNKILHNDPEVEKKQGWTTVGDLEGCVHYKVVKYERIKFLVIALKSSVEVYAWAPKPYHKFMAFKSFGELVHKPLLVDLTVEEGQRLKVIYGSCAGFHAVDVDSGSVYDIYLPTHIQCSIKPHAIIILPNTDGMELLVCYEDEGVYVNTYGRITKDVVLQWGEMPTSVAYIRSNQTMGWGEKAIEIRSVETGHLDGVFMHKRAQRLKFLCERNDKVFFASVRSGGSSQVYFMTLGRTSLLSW

[5] = target: Tyrosine-protein kinase Lck (Homo sapiens, UniProt P06239);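 also: lck was assayed as one member of a kinase panel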
[6] = target: Dual specificity tyrosine-phosphorylation-regulated kinase 1B (Homo sapiens, UniProt Q9Y463); assay: Navigating the Kinome. Panel member name: DYRK1B
[7] = target: Serine/threonine-protein kinase PAK 4 (Homo sapiens, UniProt O96013);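 also: value obtained within a kinome profiling panel in which PAK4 was one of the panel members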
[8] = target: T1, Serine/threonine-protein kinase D3 (Homo sapiens, UniProt O94806);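 also: determined within a kinase panel screen, with PRKCN as the panel member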
T1 sequence (O94806 whole entry): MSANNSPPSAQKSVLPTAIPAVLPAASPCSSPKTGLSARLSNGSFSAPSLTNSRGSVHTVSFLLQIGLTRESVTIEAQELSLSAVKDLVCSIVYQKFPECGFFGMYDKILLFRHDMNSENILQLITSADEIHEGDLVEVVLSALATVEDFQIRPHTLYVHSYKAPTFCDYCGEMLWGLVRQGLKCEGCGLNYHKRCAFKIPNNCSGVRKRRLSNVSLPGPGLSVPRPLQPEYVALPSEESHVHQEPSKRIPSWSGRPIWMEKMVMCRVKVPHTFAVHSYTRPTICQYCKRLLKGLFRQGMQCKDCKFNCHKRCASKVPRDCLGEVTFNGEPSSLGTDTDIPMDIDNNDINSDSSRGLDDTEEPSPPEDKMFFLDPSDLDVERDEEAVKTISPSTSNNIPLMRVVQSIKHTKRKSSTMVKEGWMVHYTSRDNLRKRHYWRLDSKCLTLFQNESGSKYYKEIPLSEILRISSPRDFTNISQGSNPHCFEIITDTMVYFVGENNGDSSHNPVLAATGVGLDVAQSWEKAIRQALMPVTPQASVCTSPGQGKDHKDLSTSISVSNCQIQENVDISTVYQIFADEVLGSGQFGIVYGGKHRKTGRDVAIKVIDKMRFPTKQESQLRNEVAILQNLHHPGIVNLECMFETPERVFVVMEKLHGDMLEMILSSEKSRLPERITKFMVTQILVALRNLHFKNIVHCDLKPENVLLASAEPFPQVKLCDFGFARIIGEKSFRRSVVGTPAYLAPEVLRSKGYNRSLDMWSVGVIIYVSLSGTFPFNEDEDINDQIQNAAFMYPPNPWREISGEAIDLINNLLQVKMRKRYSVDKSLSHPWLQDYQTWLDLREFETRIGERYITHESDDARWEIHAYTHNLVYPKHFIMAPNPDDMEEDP

[9] = target: BDNF/NT-3 growth factors receptor (Homo sapiens, UniProt Q16620);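 also: NTRK2 measured as one member of a broad kinome-wide kinase profiling panel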
[10] = target: Death-associated protein kinase 3 (Homo sapiens, UniProt O43293);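 also: measured as one member of a kinome-wide profiling panel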
Sequence of Death-associated protein kinase 3 (O43293 whole entry): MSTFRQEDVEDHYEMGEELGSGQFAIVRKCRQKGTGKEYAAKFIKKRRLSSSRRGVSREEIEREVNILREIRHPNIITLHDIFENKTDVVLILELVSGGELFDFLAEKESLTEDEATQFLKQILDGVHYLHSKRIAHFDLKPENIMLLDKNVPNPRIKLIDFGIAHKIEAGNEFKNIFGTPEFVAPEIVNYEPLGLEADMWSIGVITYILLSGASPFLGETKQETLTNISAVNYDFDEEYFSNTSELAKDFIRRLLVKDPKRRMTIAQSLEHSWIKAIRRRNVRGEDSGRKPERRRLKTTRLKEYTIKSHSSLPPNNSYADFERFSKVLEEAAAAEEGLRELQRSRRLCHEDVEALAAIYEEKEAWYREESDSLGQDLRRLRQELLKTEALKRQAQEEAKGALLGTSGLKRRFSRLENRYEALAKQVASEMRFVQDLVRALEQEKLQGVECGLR

[11] = target: Rho-associated protein kinase 1 (Homo sapiens, UniProt Q13464);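 also: measured within a broad kinome-wide panel profiling many kinases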
Sequence of Rho-associated protein kinase 1 (Q13464 whole entry): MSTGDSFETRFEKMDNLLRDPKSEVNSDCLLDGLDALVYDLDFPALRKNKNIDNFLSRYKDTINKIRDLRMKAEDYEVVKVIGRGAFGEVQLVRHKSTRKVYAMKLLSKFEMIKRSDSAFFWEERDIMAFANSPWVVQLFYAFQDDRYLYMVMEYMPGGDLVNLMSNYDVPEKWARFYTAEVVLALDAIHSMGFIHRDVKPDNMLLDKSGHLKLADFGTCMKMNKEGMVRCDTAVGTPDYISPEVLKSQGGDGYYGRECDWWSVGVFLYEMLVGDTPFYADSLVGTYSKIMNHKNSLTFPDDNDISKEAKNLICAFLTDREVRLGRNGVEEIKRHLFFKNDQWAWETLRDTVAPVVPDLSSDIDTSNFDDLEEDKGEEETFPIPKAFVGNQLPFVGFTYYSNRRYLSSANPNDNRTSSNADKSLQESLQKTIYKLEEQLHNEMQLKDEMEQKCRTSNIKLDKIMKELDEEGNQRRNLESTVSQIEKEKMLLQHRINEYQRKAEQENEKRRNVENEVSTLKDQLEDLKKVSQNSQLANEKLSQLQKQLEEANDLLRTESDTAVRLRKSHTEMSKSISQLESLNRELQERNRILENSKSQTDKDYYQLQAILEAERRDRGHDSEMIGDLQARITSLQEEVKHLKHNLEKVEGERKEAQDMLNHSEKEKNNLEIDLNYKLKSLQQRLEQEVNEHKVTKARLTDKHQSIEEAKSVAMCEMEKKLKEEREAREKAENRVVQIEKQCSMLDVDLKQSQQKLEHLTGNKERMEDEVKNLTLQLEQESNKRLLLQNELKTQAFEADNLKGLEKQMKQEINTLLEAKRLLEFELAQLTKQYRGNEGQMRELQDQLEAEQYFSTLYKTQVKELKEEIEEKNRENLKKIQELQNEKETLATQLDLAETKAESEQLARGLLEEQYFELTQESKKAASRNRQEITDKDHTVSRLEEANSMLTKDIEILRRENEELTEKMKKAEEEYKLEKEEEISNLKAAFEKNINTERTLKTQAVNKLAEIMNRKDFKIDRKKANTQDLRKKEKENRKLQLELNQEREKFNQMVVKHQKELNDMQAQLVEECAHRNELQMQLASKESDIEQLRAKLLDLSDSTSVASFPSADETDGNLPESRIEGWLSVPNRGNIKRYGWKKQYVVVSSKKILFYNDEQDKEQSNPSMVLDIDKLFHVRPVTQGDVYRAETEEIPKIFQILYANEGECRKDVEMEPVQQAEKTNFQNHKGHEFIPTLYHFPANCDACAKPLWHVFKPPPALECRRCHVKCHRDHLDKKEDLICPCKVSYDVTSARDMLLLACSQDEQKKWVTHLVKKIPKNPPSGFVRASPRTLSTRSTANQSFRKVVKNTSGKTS

[12] = target: T2, cAMP-dependent protein kinase catalytic subunit PRKX (Homo sapiens, UniProt P51817)
T2 sequence (P51817 whole entry): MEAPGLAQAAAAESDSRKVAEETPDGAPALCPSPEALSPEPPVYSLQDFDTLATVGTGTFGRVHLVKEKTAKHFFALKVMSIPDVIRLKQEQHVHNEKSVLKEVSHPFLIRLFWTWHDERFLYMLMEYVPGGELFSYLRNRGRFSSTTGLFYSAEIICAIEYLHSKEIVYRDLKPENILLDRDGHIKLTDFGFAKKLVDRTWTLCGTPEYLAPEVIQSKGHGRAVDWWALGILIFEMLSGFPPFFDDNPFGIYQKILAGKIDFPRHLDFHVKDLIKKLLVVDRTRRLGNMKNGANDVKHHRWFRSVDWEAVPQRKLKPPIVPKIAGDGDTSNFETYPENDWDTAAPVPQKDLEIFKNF

[13] = target: Mitogen-activated protein kinase 8 (Homo sapiens, UniProt P45983);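 also: value comes from one member of a kinome-wide kinase profiling panel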

Sequence of Tyrosine-protein kinase ABL1 (P00519 whole entry): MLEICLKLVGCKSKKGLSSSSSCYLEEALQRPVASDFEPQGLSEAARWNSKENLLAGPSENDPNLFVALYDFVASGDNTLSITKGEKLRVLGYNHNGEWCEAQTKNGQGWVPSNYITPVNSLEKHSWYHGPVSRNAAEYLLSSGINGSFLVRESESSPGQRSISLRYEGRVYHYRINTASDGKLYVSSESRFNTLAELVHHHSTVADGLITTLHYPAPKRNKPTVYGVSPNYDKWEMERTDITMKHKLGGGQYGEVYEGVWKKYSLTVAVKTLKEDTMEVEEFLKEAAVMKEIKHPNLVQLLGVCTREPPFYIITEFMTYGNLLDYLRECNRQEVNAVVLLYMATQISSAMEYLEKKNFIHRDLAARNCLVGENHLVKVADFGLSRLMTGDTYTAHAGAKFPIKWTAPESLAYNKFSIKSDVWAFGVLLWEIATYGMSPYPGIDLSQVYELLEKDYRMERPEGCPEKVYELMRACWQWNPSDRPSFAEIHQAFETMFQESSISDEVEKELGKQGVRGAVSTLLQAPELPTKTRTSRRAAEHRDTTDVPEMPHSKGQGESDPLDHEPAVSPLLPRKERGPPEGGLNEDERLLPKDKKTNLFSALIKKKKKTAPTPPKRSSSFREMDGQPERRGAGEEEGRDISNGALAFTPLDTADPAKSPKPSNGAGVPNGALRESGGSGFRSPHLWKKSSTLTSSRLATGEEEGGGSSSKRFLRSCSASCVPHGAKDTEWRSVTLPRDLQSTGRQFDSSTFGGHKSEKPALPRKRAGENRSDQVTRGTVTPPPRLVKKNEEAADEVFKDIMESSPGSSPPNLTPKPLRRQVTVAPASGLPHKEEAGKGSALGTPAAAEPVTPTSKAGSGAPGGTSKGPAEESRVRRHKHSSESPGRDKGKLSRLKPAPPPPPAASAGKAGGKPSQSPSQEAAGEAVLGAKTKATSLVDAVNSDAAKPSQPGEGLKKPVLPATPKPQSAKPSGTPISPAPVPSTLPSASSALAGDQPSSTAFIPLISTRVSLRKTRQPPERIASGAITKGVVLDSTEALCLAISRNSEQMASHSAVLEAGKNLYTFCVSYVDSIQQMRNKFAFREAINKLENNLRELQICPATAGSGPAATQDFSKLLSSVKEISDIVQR
Sequence of Cyclin-dependent kinase 8 (P49336 whole entry): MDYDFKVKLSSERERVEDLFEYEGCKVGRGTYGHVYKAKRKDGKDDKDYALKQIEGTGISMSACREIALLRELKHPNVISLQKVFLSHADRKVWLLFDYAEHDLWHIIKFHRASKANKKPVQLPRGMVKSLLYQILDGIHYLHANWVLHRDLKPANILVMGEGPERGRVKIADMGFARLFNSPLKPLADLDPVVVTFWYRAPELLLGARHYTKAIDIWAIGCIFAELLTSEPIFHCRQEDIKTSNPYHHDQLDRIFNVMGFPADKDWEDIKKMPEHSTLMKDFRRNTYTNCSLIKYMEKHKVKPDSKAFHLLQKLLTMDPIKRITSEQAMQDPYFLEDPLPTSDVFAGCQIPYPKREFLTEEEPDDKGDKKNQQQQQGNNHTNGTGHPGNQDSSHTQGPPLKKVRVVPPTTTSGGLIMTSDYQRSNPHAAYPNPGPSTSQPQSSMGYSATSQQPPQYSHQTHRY

Compound | Ki [1] | Ki [2] | Ki [3] | Ki [4] | Ki [5] | Ki [6] | Ki [7] | Ki [8] | Ki [9] | Ki [10] | Ki [11] | Ki [12] | Ki [13]
O=C(Nc1cccc(C(F)(F)F)n1)Nc1ccnc2cc(OC(F)F)ccc12 | > 3.16 µM (inactive) | > 3.98 µM (inactive) | > 3.98 µM (inactive) | > 5.01 µM (inactive) | > 6.31 µM (inactive) | > 2.51 µM (inactive) | > 5.01 µM (inactive) | > 3.98 µM (inactive) | > 3.98 µM (inactive) | > 5.01 µM (inactive) | > 3.98 µM (inactive) | > 3.16 µM (inactive) | > 5.01 µM (inactive)
O=C(Nc1cccc(C(F)(F)F)n1)Nc1ccnc2cc(Cl)ccc12 | 3.98 µM (active) | > 3.98 µM (inactive) | > 3.98 µM (inactive) | – | > 6.31 µM (inactive) | > 2.51 µM (inactive) | > 5.01 µM (inactive) | > 3.98 µM (inactive) | > 3.98 µM (inactive) | > 5.01 µM (inactive) | > 3.98 µM (inactive) | > 3.16 µM (inactive) | > 5.01 µM (inactive)
CCC1CC(NS(=O)(=O)C2CC2)CC1c1ncc2cnc3[nH]ccc3n12 (configuration not stated) | – | > 3.16 µM (inactive) | > 3.98 µM (inactive) | > 5.01 µM (inactive) | 3.98 µM (active) | > 2.51 µM (inactive) | 2.51 µM (active) | > 3.98 µM (inactive) | > 3.98 µM (inactive) | 0.794 µM (active) | 0.0316 µM (active) | > 1.26 µM (inactive) | > 5.01 µM (inactive)
O=c1[nH]c2cc(Br)cnc2[nH]1 | 15.8 µM (active) | 7.94 µM (active) | 50.1 µM (active) | 50.1 µM (active) | – | 10 µM (active) | 39.8 µM (active) | 20 µM (active) | – | 12.6 µM (active) | 50.1 µM (active) | 12.6 µM (active) | –
